According to patent US9656984B2, “PI3K/AKT/mTOR inhibitors and pharmaceutical uses thereof” (UNIVERSITE DE RENNES 1, priority 2013, dated 2017):

How the values were obtained:
[1] = tested on: AKT phosphorylation; assay: In cellulo IC50 of AKT phosphorylation in CEM cells (Western blot densitometry); assay type: cell-based; details: Homo sapiens, CCRF-CEM, 2 hours incubation, AKT phosphorylation vs whole AKT, read-out: In vivo IC50
Description: CEM cells were incubated for 2 hours with the indicated concentrations of each mentioned compound of formula (I). Cells were then lysed and 100 μg of protein was loaded per line in an SDS-PAGE. Bands from AKT phosphorylation and whole AKT observed by Western blot were scanned and quantified by densitometric analysis. Based on these values, an in cellulo IC50 (half maximal inhibitory concentration) was measured for each compound of formula (I).
Immunoblots Excepted for immunoprecipitation experiments in which cells were lyzed with RIPA buffer, cells were lyzed for 30 min at 4° C. in Lysis buffer (25 mM HEPES pH 7.4, 1% v/v Triton X-100, 150 mM NaCl, 2 mM EGTA supplemented with a mix of protease inhibitors). Protein concentration was determined by the bicinchoninic acid method (Pierce, Rockford, Ill., USA) according to the manufacturer's protocol. Proteins were resolved by 8, 10 or 12% SDS-PAGE and transferred to a nitrocellulose membrane (GE Healthcare, Buckinghamshire, UK). The membrane was blocked 15 min with TBST (50 mM Tris, 160 mM NaCl, 0.05% v/v Tween 20, pH 7.4) containing 5% w/v dried skimmed milk (TBS™). Primary antibody was incubated overnight at 4° C. in TBS™. The membrane was intensively washed (TBST) and then the peroxydase-labeled anti-mouse IgG1 or IgG2a (CliniSciences, Nanterre, France) was added for 45 min. Proteins were visualized with the enhanced chemiluminescence substrate kit (ECL RevelBIOt®, Ozyme, Saint Quentin en Yvelines, France).

[2] = tested on: MCF-7 (ER-positive) breast tumor cell line; assay: Cell death by MTT assay, MCF-7; assay type: cell-based, human; details: 24 hours, mean of four experiments
Description: (§1) The ER-positive breast tumor cell lines MCF-7 and T47-D and the HER2 positive breast tumor cell lines MDA-MB-453 and BT474 (also ER-positive) were incubated with the indicated concentration of each mentioned compound of formula (I) for 24 hours and then cell death was assessed using MTT assay.
(§2) For each cell line, the percentage of cell death (mean of four experiments for cell lines MCF-7 and T47-D, and two experiments for cell lines MDA-MB-453 and BT474) is given in view of the increasing concentration of each tested compound of the invention.
(§3) Cell viability was assessed using the 3-[4,5-dimethylthiazol-2-yl]-2,5-diphenyltetrazolium bromide (MTT) viability assay (1). In brief, cells (4×10^4 per well) were cultured for 20 h in flat-bottomed 96 well plates with various concentrations of the apoptosis inducer. Then 0.015 ml of MTT (5 mg/ml in PBS) was added to each well and incubated for 4 h at 37° C. Formazan salt precipitats were dissolved by adding 0.115 ml of isopropyl alcohol containing 1% formic acid (v/v), and the absorbance was measured at 570 nm.

[3] = tested on: MDA-MB-453 (HER2 positive) breast tumor cell line; assay: Cell death by MTT assay, MDA-MB-453; assay type: cell-based, human; details: 24 hours, mean of two experiments
Description: as §1, §2, §3

[4] = tested on: BT474 (ER-positive/HER2-positive) breast tumor cell line; assay: Cell death by MTT assay, BT474; assay type: cell-based, human; details: 24 hours, mean of two experiments
Description: as §1, §2, §3

[5] = tested on: BT549 cells; assay: Boyden chamber cell migration, BT549 stimulated with CD95L; assay type: cell-based, human; details: BT549, 1 μM, CD95L 100 ng/ml, 24 hours, FIG. 17A
Description: TNBC (MDA-MB-231 and BT549) cell lines were pre-incubated for 1 hour in presence or absence of non-cytotoxic amount of compound 25 (1 μM) and then treated or untreated with CD95L (100 ng/ml) for 24 hours. Cell migration was analyzed using Boyden chamber assay. Migrating Giemsa-stained cells were lysed and absorbance was measured at a wavelength of 560 nm. Values represent the means±SEM of three independently performed experiments. *p<0.05 as calculated using two-tailed Mann-Whitney test.
After membrane hydration of Boyden chambers (Millipore, Molsheim, France) containing 8 μm pore membranes, 10^5 cells were added to the top chamber. The bottom chamber was filled with low serum (1%)-containing medium in the presence or absence of cl-CD95L (100 ng/ml). Breast cancer cells were incubated for 24 h. To quantify invasion, cells were fixed with methanol and stained with Giemsa. Stained cells were then removed from the top-side of the membrane using a cotton-tipped swab and five representative pictures for each insert were taken of the invading cells from the reverse side. For each experiment, invading cells were lysed and absorbance at 560 nm was measured.

[6] = target: mTORC1 (Homo sapiens, UniProt P42345); assay: Immunoblot of mTORC1 activity in TSC2^−/− AML cells; assay type: cell-based; parameters: AML cells (1.10^6 cells) deficient for TSC2 (TS2^−/−) or reconstituted with wild type TSC2; endogenous in cells; host or cells: AML (angiomyolipoma) cells from a patient, TSC2-/- or reconstituted with wild type TSC2; details: 10 μM, FIG. 15
Description: AML cells (1.10^6 cells) deficient for TSC2 (TS2^−/−) or reconstituted with wild type TSC2 (TSC2^+/+) (generous gift from Dr M. Pende, Paris) were treated or untreated for indicated times with 10 μM of compound 25 or rapamycin and then cells were lyzed. 100 μg of protein was loaded and resolved by SDS-PAGE and indicated immunoblots were performed. Total S6 and β-actin serve as loading controls. S6 is phosphorylated by p70S6K on its serine 240 and 244. 4EBP1 is phosphorylated by mTORC1 on its Threonine at positions 37 and 46. p70S6K and 4EBP1 are direct substrates of mTORC1. mTORC1-driven phosphorylation of 4EBP1 can be monitored by the appearance of a high molecular weight band which disappears in presence of compound 25 or Rapamycin (see FIG. 15). Of note, restoration of TS2 expression in AML cells reduces the basal level of S6 and 4EBP1 phosphorylation.
Immunoblots Excepted for immunoprecipitation experiments in which cells were lyzed with RIPA buffer, cells were lyzed for 30 min at 4° C. in Lysis buffer (25 mM HEPES pH 7.4, 1% v/v Triton X-100, 150 mM NaCl, 2 mM EGTA supplemented with a mix of protease inhibitors). Protein concentration was determined by the bicinchoninic acid method (Pierce, Rockford, Ill., USA) according to the manufacturer's protocol. Proteins were resolved by 8, 10 or 12% SDS-PAGE and transferred to a nitrocellulose membrane (GE Healthcare, Buckinghamshire, UK). […]

## O=[N+]([O-])C1=Cc2cc(Br)cc(Br)c2OC1c1ccc(Br)cc1 (centres unmarked) [Compound 25, 6,8-dibromo-2-(4-bromo-phenyl)-3-nitro-2H-chromene]
[1]
  IC50: 3000 nM
[2]; MCF-7, 6.25 μM
  percentage of cell death: 47.86%
[2]; MCF-7, 12.5 μM
  percentage of cell death: 63.54%
[2]; MCF-7, 25 μM
  percentage of cell death: 76.72%
[2]; MCF-7, 50 μM
  percentage of cell death: 94.09%
[3]; MDA-MB-453, 0.390625 μM
  percentage of cell death: 0%
[3]; MDA-MB-453, 0.78125 μM
  percentage of cell death: 9.09%
[3]; MDA-MB-453, 1.5625 μM
  percentage of cell death: 81%
[3]; MDA-MB-453, 3.125 μM
  percentage of cell death: 85.57%
[3]; MDA-MB-453, 6.25 μM
  percentage of cell death: 89.213%
[3]; MDA-MB-453, 12.5 μM
  percentage of cell death: 95.09%
[3]; MDA-MB-453, 25 μM
  percentage of cell death: 99.35%
[3]; MDA-MB-453, 50 μM
  percentage of cell death: 100.76%
[4]; BT474, 6.25 μM
  percentage of cell death: 75.54%
[4]; BT474, 12.5 μM
  percentage of cell death: 95.61%
[4]; BT474, 25 μM
  percentage of cell death: 90.49%
[4]; BT474, 50 μM
  percentage of cell death: 96.81%
[5]
  migration of tumor cells stimulated with CD95L: abrogate
[6]
  mTORC1 activity in TSC2^−/− cells: inhibit mTORC1 activity
[6]; AML cells
  mTORC1-driven phosphorylation of 4EBP1 (high molecular weight band): disappears
